This is an account of results in ChEMBL document CHEMBL5370611, “Discovery of 4,5,6,7-Tetrahydropyrazolo[1.5-a]pyrizine Derivatives as Core Protein Allosteric Modulators (CpAMs) for the Inhibition of Hepatitis B Virus” (J Med Chem, 2023).

In brackets after ≈: the same amount, converted by molar mass. Activity calls are given as the source filed them. The calls are words filed in the database; no cut-off is given here.

A short description of data set [1]: Resistance index, ratio of EC50 for wild type Hepatitis B virus to EC50 for Hepatitis B virus harboring […] transfected in human HepG2 cells measured after 6 days by qPCR analysis. The format is functional. Conditions: time 6 day.
For data set [2], the system named is Hepatitis B virus. Briefly: Antiviral activity against HBV infected in human HepG2.2.15 cells assessed as reduction in HBV DNA replication measured after 5 days by qPCR analysis. Type of data set: functional, organism-based. Conditions: HepG2.2.15, 120 h. A general note: Real-time PCR tracks product formation cycle by cycle.
A short description of data set [3]: Cytotoxicity against human HepDE19 cells assessed as reduction in cell viability measured after 5 days by CCK-8 method. Conditions: HepDE19, 120 h, time 5 day. The format is functional. On the technique in general: Tetrazolium dyes change colour on reduction, which living cells bring about.
Data set [4] can be described thus: Selectivity index, ratio of CC50 for human HepDE19 cells assessed as reduction in cell viability to EC50 for HBV infected in human HepG2.2.15 cells assessed as reduction in HBV DNA replication. The format is toxicity, cell-based. Conditions: HBV-infected HepG2.2.15 cells (EC50).
The nature of data set [5]: Metabolic stability in mouse liver microsomes assessed as clearance at 1 uM preincubated for 10 mins and measured upto 30 mins in presence of NADPH generating system by LC-MS/MS analysis. The format is ADME, Microsome. Conditions: time < 40 min. On the technique in general: Liver microsomes are vesicles of endoplasmic reticulum, rich in cytochrome P450 enzymes.
A short description of data set [6]: Metabolic stability in human liver microsomes assessed as clearance at 1 uM preincubated for 10 mins and measured upto 30 mins in presence of NADPH generating system by LC-MS/MS analysis. The format is ADME, Microsome. Conditions: time < 40 min.
The subject of data set [7] is Hepatitis B virus. The data set can be described thus: Inhibition of HBV Cp150 dimer assembly assessed as formation of large abnormal particles at 20 uM incubated for 2 hrs by transmission electron microscopy.
Data set [8] in a line: Resistance index, ratio of EC50 for wild type Hepatitis B virus to EC50 for Hepatitis B virus harboring A181T/N236T transfected in human HepG2 cells measured after 6 days by qPCR analysis. Type of data set: functional. Conditions: time 6 day.
Data set [9] in a line: Resistance index, ratio of EC50 for wild type Hepatitis B virus to EC50 for Hepatitis B virus harboring A181V/N236T transfected in human HepG2 cells measured after 6 days by qPCR analysis. The format is functional. Conditions: time 6 day.
A short description of data set [10]: Resistance index, ratio of EC50 for wild type Hepatitis B virus to EC50 for Hepatitis B virus harboring A181T transfected in human HepG2 cells measured after 6 days by qPCR analysis. Type of data set: functional. Conditions: time 6 day.
Data set [11] in a line: Resistance index, ratio of EC50 for wild type Hepatitis B virus to EC50 for Hepatitis B virus harboring A181V transfected in human HepG2 cells measured after 6 days by qPCR analysis. Type of data set: functional. Conditions: time 6 day.
Data set [12] can be described thus: Resistance index, ratio of EC50 for wild type Hepatitis B virus to EC50 for Hepatitis B virus harboring N236T transfected in human HepG2 cells measured after 6 days by qPCR analysis. The format is functional. Conditions: time 6 day.
Data set [13] in a line: Resistance index, ratio of EC50 for wild type Hepatitis B virus to EC50 for Hepatitis B virus harboring L180M/M204 V/A194T transfected in human HepG2 cells measured after 6 days by qPCR analysis. Conditions: time 6 day. Type of data set: functional.
Data set [14] deals with Hepatitis B virus. The data set can be described thus: Inhibition of HBV replication transfected in human HepG2.2.15 cells assessed as inhibition of encapsidated DNA formation in cell lysate incubated for 5 days by SDS-PAGE analysis. The format is functional, organism-based. Conditions: dose <= 10.0 µM, time 5.0 day.
The subject of data set [15] is Hepatitis B virus. The data set can be described thus: Inhibition of HBV replication transfected in human HepG2.2.15 cells assessed as assessed as induction of capsid degradation in cell lysate at upto 10 uM incubated for 5 days by SDS-PAGE analysis. The format is functional, organism-based. Conditions: time 5.0 day.
Data set [16] concerns Hepatitis B virus. Briefly: Inhibition of HBV replication transfected in human HepG2.2.15 cells assessed as assessed as induction of total core protein degradation in cell lysate at upto 10 uM incubated for 5 days by SDS-PAGE analysis. Type of data set: functional, organism-based. Conditions: time 5.0 day.
A short description of data set [17]: Resistance index, ratio of EC50 for wild type Hepatitis B virus to EC50 for Hepatitis B virus harboring M204 V transfected in human HepG2 cells measured after 6 days by qPCR analysis. The format is functional. Conditions: time 6 day.
A short description of data set [18]: Resistance index, ratio of EC50 for wild type Hepatitis B virus to EC50 for Hepatitis B virus harboring L180M/M204V transfected in human HepG2 cells measured after 6 days by qPCR analysis. The format is functional. Conditions: time 6 day.
Data set [19] can be described thus: Lyophilization solubility of the compound in phosphate buffer at pH 6.5 incubated for 1 hr under stirring condition and 2 hrs under shaking condition by HPLC-UV analysis. Type of data set: physicochemical.
The nature of data set [20]: Resistance index, ratio of EC50 for wild type Hepatitis B virus to EC50 for Hepatitis B virus harboring L180M/M204 V/S202G transfected in human HepG2 cells measured after 6 days by qPCR analysis. The format is functional. Conditions: time 6 day.
A short description of data set [21]: Resistance index, ratio of EC50 for wild type Hepatitis B virus to EC50 for Hepatitis B virus harboring L180M/M204 V/M250 V/[…] transfected in human HepG2 cells measured after 6 days by qPCR analysis. The format is functional. Conditions: time 6 day.
A short description of data set [22]: Resistance index, ratio of EC50 for wild type Hepatitis B virus to EC50 for Hepatitis B virus harboring L180M/M204 V/T184G/[…] transfected in human HepG2 cells measured after 6 days by qPCR analysis. The format is functional. Conditions: time 6 day.

`Cc1cn([C@@H]2C[C@@H](O)[C@H](CO)O2)c(=O)[nH]c1=O` [TELBIVUDINE]: the “Ratio EC50” value in data set [1] is on record as above 165.

The EC50 is the concentration that produces a half-maximal response. A word on the CC50: it is the concentration at which the toxic effect on the cells reaches its halfway point. Take `O=C(Nc1ccc(Cl)c(F)c1)N1CCn2ncc(-c3ccc(F)cc3)c2C1`: in the data set with Hepatitis B virus [2], the EC50 was found to be 70 nM. Further, in data set [3], the CC50 amounted to 31 µM. In addition, the selectivity ratio in data set [4] is 443. Moreover, the CLhep predicted at 1 µM in data set [5] is 60 mL/min/kg; in [6], 15 mL/min/kg. Further, the outcome with Hepatitis B virus [7] was inactive.

With `C[C@H](Cn1cnc2c(N)ncnc21)OCP(=O)(O)O` [TENOFOVIR ANHYDROUS], the “Ratio EC50” value turned out to be 3.3 in [8]; 3.8 in [9]; 0.9 in [10]; 1.5 in [11]; 3.3 in data set [12]; 4.3 in data set [13].

In the case of `COC(=O)C1=C(CN2CC(F)(F)C[C@H]2C(=O)O)NC(c2nccs2)=N[C@H]1c1ccc(F)cc1Cl`, the result with Hepatitis B virus [7] was Active. In the data set on Hepatitis B virus [14], the inhibition entry was “Dose-Dependent Effect”. The inhibition entry in the data set with Hepatitis B virus [15] and in the data set on Hepatitis B virus [16] was “Active” throughout.

On to `Nc1ccn([C@@H]2CS[C@H](CO)O2)c(=O)n1` [LAMIVUDINE], for which the “Ratio EC50” value in data set [17] is reported as 19; in data set [18], above 225; in data set [8], 29; in data set [9] it was 5.8.

In the case of `Nc1ncnc2c1ncn2CCOCP(=O)(O)O` [ADEFOVIR], the “Ratio EC50” value in data set [10] is given as 2.2; in data set [11] it was 1.6; in data set [12], 2.5.

The solubility is how much of the substance goes into solution per volume. A lower solubility goes with a poorly soluble substance. On to `O=C(Nc1ccc(F)c(Cl)c1)N1CCn2ncc(NC3CCCC3)c2C1`, for which the EC50 in the data set with Hepatitis B virus [2] came out at 2300 nM. In addition, the CC50 in [3] was above 100 µM. Besides, in [4], the selectivity ratio was above 43. Moreover, the CLhep predicted at 1 µM was 76 mL/min/kg in [5] and 19 mL/min/kg in data set [6]. For the same molecule, the solubility at 3 h in data set [19] is below 1 µg/mL.

Turning to `O=C(Nc1ccc(F)c(Cl)c1)N1CCn2ncc(-c3ccccc3F)c2C1`, the EC50 in the data set with Hepatitis B virus [2] worked out at 33 nM. The CC50 in data set [3] was 16 µM. Moreover, in [4], the selectivity ratio was found to be 476. Moreover, the CLhep predicted at 1 µM was 74 mL/min/kg in [5] and 19 mL/min/kg in data set [6]. This molecule also had a solubility at 3 h in data set [19] below 1 µg/mL.

With `C=C1[C@H](CO)[C@@H](O)C[C@@H]1n1cnc2c(=O)[nH]c(N)nc21` [ENTECAVIR ANHYDROUS], the “Ratio EC50” value came out at 62.8 in [20], 712.4 in [21] and 607.1 in data set [22].

Turning to `O=C(Nc1cccnc1)N1CCn2ncc(-c3ccc(F)cc3)c2C1`, the EC50 in the data set with Hepatitis B virus [2] came out at 3030 nM. For the same molecule, the CC50 in [3] was above 100 µM. Also, in data set [4], the selectivity ratio is above 33. Also, the results for the CLhep predicted at 1 µM in data set [5] and in data set [6] were 49 mL/min/kg and 6 mL/min/kg, respectively. In data set [19], this molecule showed a solubility at 3 h of 98 µg/mL (≈ 290 µM).

Regarding `O=C(Nc1ccc(F)c(Cl)c1)N1CCn2ncc(N3CCCC3=O)c2C1`, in the data set with Hepatitis B virus [2], the EC50 was 52 nM. Moreover, the CC50 in data set [3] was above 100 µM. Moreover, the selectivity ratio in [4] was above 1930. Moreover, the CLhep predicted at 1 µM in [5] was 65 mL/min/kg; in [6], 7.8 mL/min/kg. For the same molecule, the concentration in solution in [19] (solubility at 3 h) was 160 µg/mL (≈ 423 µM).

With `O=C(Nc1ccc(F)c(Cl)c1)N1CCn2ncc(-c3ccc(F)cn3)c2C1`, in the data set with Hepatitis B virus [2], the EC50 is 110 nM. Also, the CC50 in data set [3] is 35 µM. Also, the selectivity ratio in data set [4] turned out to be 320. Also, the CLhep predicted at 1 µM in data set [5] was 80 mL/min/kg; in data set [6] it was 16 mL/min/kg. Further, the solubility at 3 h in data set [19] was below 1 µg/mL.
